Tests used:
[1] = target: T1, Aβ(1-42) (Homo sapiens, UniProt P05067); experiment: Aβ(1-42) aggregation assay by Fluorescence Correlation Spectroscopy (FCS); type: biochemical; details: 5.5-11 μM Aβ(1-42) + 22 nM oregon green-labelled Aβ(1-42), 10 nM of aminopyrazole (referring to the initial solution), 5-10% DMSO, 10 mM sodium phosphate buffer pH 7.2, room temperature, 12-72 hours
T1 construct: Aβ(1-42) was used as the model molecule in the aggregation experiments

[2] = target: T1, Aβ(1-42); type: biochemical; details: FIG. 10; 32.8 μM and 16.4 μM Aβ(1-42), 20 mM AmpOx, 6 h at room temperature, 6% DMSO, 100,000 g centrifugation
Procedure: Aβ(1-42) solutions were incubated under various conditions and their aggregation was analysed by a 100,000 g spin in an ultracentrifuge.
The Aβ(1-42) dissolved in 100% DMSO was diluted to a concentration of 11 μM in 10 mM of sodium phosphate buffer pH 7.2. All samples contained 22 nM of oregon green labelled Aβ(1-42) and were incubated for 48 hours at room temperature in 10% DMSO.
Aβ(1-42) was dissolved in 100% DMSO and diluted to a concentration of 32.8 μM and 16.4 μM in 10 mM of sodium phosphate buffer pH 7.2. The protein was incubated at room temperature for 6 h in 6% DMSO with and without 20 mM AmpOx.

[3] = Solubility of aminopyrazoles in DMSO and after dilution in sodium phosphate buffer
Procedure: These aminopyrazoles were dissolved in 100% DMSO. […] In order to eliminate particles, these dissolved solutions of aminopyrazoles were resolved in 10 mM of sodium phosphate buffer pH 7.2 to a final DMSO concentration of 5%. They were then filtered with Microcon YM 10 tubes.

T1 sequence (P05067 672-713 limits assumed): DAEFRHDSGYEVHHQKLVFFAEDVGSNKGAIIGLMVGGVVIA

In the case of `Cc1cc(NC(=O)C(=O)Nc2cc(C)[nH]n2)n[nH]1` [AmpOx, N,N′-Bis-(−5-methyl-1H-pyrazole-3-yl)-oxalic acid diamide], the “inhibition of Aβ(1-42) aggregation” value [1] is reported as “able to disturb or inhibit the aggregation of Aβ(1-42)”, the “distribution of Aβ(1-42) between supernatant (S) and pellet (P), compared with the Trimer result” value [2] is reported as “almost identical results” and the “solubility in 100% DMSO” value [3] is reported as “not completely soluble”.

For `COC(=O)c1cc(NC(=O)c2cc(NC(=O)c3cc([N+](=O)[O-])[nH]n3)[nH]n2)[nH]n1` [Trimer], the “inhibition of Aβ(1-42) aggregation” value [1] was “able to disturb or inhibit the aggregation of Aβ(1-42)”.

Reference: patent publication US20050239808A1, “Active substances for the treatment, diagnosis and prophylaxis of diseases in which abnormal protein structures occur” (priority 2002, published 2005)
